Like-named read-outs stand apart in the source and are kept apart here.
Experiments:
[1] = test system: erythrocytic cells; test: Percent hemolysis of erythrocytic cells during loading or incubation; type: cell-based; details: 800 mM trehalose, 100 mOsm ADSOL, 6.6 mM Na-phosphate; 38-41° C., 6 hours
[2] = test system: human platelets; test: Loading of platelets with trehalose (anthrone reaction); type: cell-based; details: for trehalose uptake: 37° C.; for loading efficiency of trehalose: 4 hour incubation, 50 mM external trehalose
Experimental: Washing of Platelets. Platelet concentrations were obtained from the Sacramento blood center or from volunteers in our laboratory. Platelet rich plasma was centrifuged for 8 minutes at 320×g to remove erythrocytes and leukocytes. The supernatant was pelleted and washed two times (480×g for 22 minutes, 480×g for 15 minutes) in buffer A (100 MM NaCl, 10 MM KCl, 10 mM EGTA, 10 mM imidazole, pH 6.8). Platelet counts were obtained on a Coulter counter T890 (Coulter, Inc., Miami, Fla.).
Loading of Platelets with Trehalose. Washed platelets in a concentration of 1-2 10^9 platelets/ml were incubated at various temperatures in the presence of 1-20 mg/ml trehalose. Incubation temperatures were chosen from 4° C. to 37° C. Incubation times were varied from 0.5 to 4 hours. After incubation the platelet solutions were washed in buffer A two times (by centrifugation at 14,000 RPM for 20 s in a table centrifuge). Platelet counts were obtained on a coulter counter. Platelets were pelleted (45 S at 14,000 RPM) and sugars were extracted from the pellet using 80% methanol. The samples were heated for 30 minutes at 80° C. The methanol was 10 evaporated with nitrogen, and the samples were kept dry and redissolved in H2O prior to analysis. The amount of trehalose in the platelets was quantified using the anthrone reaction (Umbreit et al., Mamometric and Biochemical Techniques, 5th Edition, 1972). Samples were redissolved in 3 ml H2O and 6 ml anthrone reagents (2 g anthrone dissolved in 10M sulfuric acid). After vortex mixing, the samples were placed in a boiling water bath for 3 minutes. Then the samples were cooled on ice and the absorbance was measured at 620 nm on a Perkin Elmer spectrophotometer. The amount of platelet associated trehalose was determined using a standard curve of trehalose.
Quantification of Trehalose and LYCH Concentration. Uptake was calculated for each sample as micrograms of trehalose or LYCH per platelet. The internal trehalose concentration was calculated assuming a platelet radius of 1.2 μm and by assuming that 50% of the platelet volume is taken up by the cytosol (rest is membranes). The loading efficiency was determined from the cytosolic trehalose or LYCH concentration and the concentration in the loading buffer.

[3] = test system: erythrocytic cells; test: Hemolysis / survival of freeze-dried and rehydrated erythrocytic cells
Experimental: Cells were loaded in either 800 mM trehalose, 100 mOsm ADSOL, 6.6 mM Na-phosphate (FIG. 21, data set labeled as 800 mM treh) or in 800 mM trehalose, 100 mOsm ADSOL, 6.6 mM Na-phosphate and 1.2 mg/ml α-crystallin (FIG. 21, data set labeled as +α-crystallin 1.2 mg/ml). Cells were subsequently mixed with freeze-drying buffer with final concentration of 250 mM trehalose, 20 mOsm ADSOL, 15% HES and 2.5% HSA and were freeze-dried. After freeze-drying they were directly rehydrated (no pre-hydration) in 141 mM trehalose, 75 mOsm PBS, 11.25% HES and 1.875% HSA. […] In the third data set of FIG. 21, along with 1.2 mg/ml α-crystallin, there was 0.5 mg/ml α-crystallin added to the rehydration buffer.
Rehydration experiments were performed combining α-crystallin and Zn^2+ ions, and applying 5 min pre-hydration.
The cells were loaded in media with different trehalose concentration (400, 500, 600, 700 and 800 mM trehalose) in 100 mOsm PBS pH 7.2. The cells were freeze-dried in 300 mM trehalose in 100 mOsm PBS, 15% HES and 2.54% HSA and rehydrated in a buffer containing 188 mM trehalose, 15% HES and 2.5% HSA.
Loading buffer comprised 800 mM trehalose in a salt solution of 100 mOsm PBS. The incubation time was 16 hours at a temperature of about 35° C. After the cells were loaded, they were subsequently washed in a washing buffer comprising 300 mM in a salt solution of 100 mOsm PBS. Within 3 hours after washing the loaded cells, the wash loaded cells were freeze-dried in freeze-drying buffer comprising about 300 mM trehalose, about 100 mOsm PBS, about 2.5% by wt. HSA, and about 15% by wt. HES. After the freeze-drying procedure the cells had about 75 mM trehalose, about 25 mOsm PBS, about 0.6% by wt. HSA and about 4.0% by wt. HES left in the cells. The freeze-dried cells were then reconstituted at about 37° C. for about 10 minutes in a rehydration buffer comprising about 188 mM trehalose, about 100 mOsm PBS, about 2.5% by wt.

[4] = test system: human erythrocytic cells; test: Trehalose uptake by erythrocytic cells (anthrone assay, HPLC); type: cell-based
Experimental: FIG. 5 graphically illustrates the loading efficiency of trehalose into human erythrocytic cells as a function of external trehalose concentration at respective temperatures of 4° C. and 37° C. Erythrocytic cells were exposed to trehalose for 18 hours at either 4° C. or 37° C. The trehalose concentration in the incubation medium varied between 230 mM and 1000 mM. Each incubation buffer contained trehalose (between 230 mM and 1000 mM) and 100 mOsm PBS pH 7.2. Increase in the trehalose concentration in the loading medium results in an increase in the sugar uptake, reaching about 100 mM cytoplasmic trehalose in erythrocytes incubated in 1000 mM trehalose and 100 mOsm PBS. At 4° C., the uptake was very limited, being about 25 mM. The trehalose intake was measured using anthrone assay and confirmed by high performance liquid chromatography. It is clear that there was substantial loading at 37° C., but not at 4° C. Furthermore, trehalose loading was not significant unless the extracellular cellular trehalose concentration gives a hyperosmotic pressure.
FIG. 7 graphically illustrates trehalose uptake (i.e., intracellular trehalose mM) and hemolysis (i.e., % hemolysis) as a function of incubation temperature (° C.). The incubation temperature was varied between 4° C. and 37° C. […] Between 4° C. and 30° C., the cytoplasmic trehalose was very low (between 1 and 4 mM).
100 mOsm ADSOL contains 24 mM glucose, 0.43 mM adenine, 33.3 mM NaCl and 8.9 mM mannitol. Four different temperatures of incubation were used: 4° C., 23° C., 37° C. and 41° C. […] At 23° C., the uptake was higher than at 4° C. and increased with increase of the time of incubation reaching 22 mM intracellular trehalose. At 37° C., the highest uptake of trehalose by the erythrocytic cells was observed within 16 hours (60 mM). At 41° C., the uptake was slightly higher than that observed at 37° C. within 6 hours.

[5] = test system: platelets; test: Stability of platelets during incubation (microscopy, flow cytometric analysis); type: cell-based, human
Experimental: The stability of the platelets during a 4 hours incubation period was studied using microscopy and flow cytometric analysis. […] No signs of microvesicle formation could be observed after 4 hours incubation, as can be judged by the stable relative proportion of microvesicle gated cells (less than 3%). The formation of microvesicles is usually considered as the first sign of platelet activation (Owners et al., Trans. Med. Rev., 8, 27-44, 1994). Characteristic antigens of platelet activation include: glycoprotein 53 (gp53, a lysosomal membrane marker), PECAM-1 (platelet endothelial cell adhesion molecule-1, an alpha granule constituent), and P-selection (an alpha granule membrane protein).

- loading efficiency of trehalose ([2]; 22° C. and below): below 5%
- loading efficiency of trehalose ([2]; 37° C. (FIG. 1)): 35%
- loading efficiency ([2]; time course at 37° C., incubation period of 4 hours (FIG. 2)): 61%
- intracellular trehalose ([4]; 800 mM trehalose, 100 mOsm ADSOL, 6.6 mM K-phosphate, 4° C., 16 hours): 10 mM
- intracellular trehalose ([4]; 800 mM trehalose, 100 mOsm ADSOL, 6.6 mM K-phosphate, 23° C.): 22 mM
- intracellular trehalose ([4]; 800 mM trehalose, 100 mOsm ADSOL, 6.6 mM K-phosphate, 37° C., within 16 hours): 60 mM
- cytoplasmic trehalose ([4]; 800 mM trehalose, 100 mOsm ADSOL, 6.6 mM K-phosphate, nine(9) hours at 4° C.): about 10 mM
- cytoplasmic trehalose ([4]; 800 mM trehalose, 100 mOsm ADSOL, 6.6 mM K-phosphate, nine(9) hours at 23° C.): about 22 mM
- cytoplasmic trehalose ([4]; 800 mM trehalose, 100 mOsm ADSOL, 6.6 mM K-phosphate, nine(9) hours at 37° C.): about 60 mM
- cytoplasmic trehalose ([4]; 6 hours in 800 mM trehalose in 100 mOsm PBS pH 7.2, 37° C.): up to 35 mM
- cytoplasmic trehalose uptake ([4]; 18 hours, 4° C.): about 25 mM
- cytoplasmic trehalose ([4]; 18 hours, 37° C., 1000 mM trehalose and 100 mOsm PBS): about 100 mM
- trehalose (mM) to incubation (hours) loading gradient ([4]; about 23° C.): about 0.75
- trehalose (mM) to incubation (hours) loading gradient ([4]; about 37° C., about nine(9) hours): about 1.25
- intracellular trehalose ([4]; loaded in 400 mM trehalose in 100 mOsm PBS at 35° C. for 16 hours): 3 mM
- intracellular trehalose ([4]; loaded in 800 mM trehalose in 100 mOsm PBS at 35° C. for 16 hours): 60 mM
- trehalose left in the cells after freeze-drying ([4]; loaded in 800 mM trehalose/100 mOsm PBS 16 hours about 35° C., washed, freeze-dried): about 75 mM
- platelet morphology ([5]; 4 hours incubation at 37° C., 25 mM external trehalose): No morphological changes
- platelet morphology ([5]; 4 hours incubation in 75 mM trehalose): swollen
- relative proportion of microvesicle gated cells ([5]; after 4 hours incubation): less than 3%
Compound: OC[C@H]1O[C@H](O[C@H]2O[C@H](CO)[C@@H](O)[C@H](O)[C@H]2O)[C@H](O)[C@@H](O)[C@@H]1O [trehalose]
- extent of hemolysis during loading [1]: about 17%
- trehalose uptake ([2]; after 2 hours, rapid linear uptake): 3.3×10^−10 mol/m^2s
- trehalose uptake ([2]; from 0 to 2 hours): 2.8×10^−11 mol/m^2s
- biconcave shape and cell integrity of rehydrated cells ([3]; 60 mM cytoplasmic trehalose, freeze-dried and rehydrated (FIG. 14)): well preserved
- cells lysed after rehydration ([3]; protocol of Example 12: loaded 800 mM trehalose/100 mOsm PBS, freeze-dried and rehydrated with trehalose, PBS, HSA, HES): less than 5%
- hemolysis at 100000 µM ([3]; read-out: % hemolysis of rehydrated cells): < 10%
- hemolysis at 800000 µM ([3]; read-out: hemolysis after freeze-drying and direct rehydration): 63%
- hemolysis at 800000 µM ([3]; read-out: percent hemolysis after freeze-drying and direct rehydration): 68%

Source: patent US20050031597A1, “Cells and improved method for preserving cells” (priority 2003, published 2005)
